Numbers after ± are expanded uncertainties.
How the values were obtained:
[1] = Crystal; DTA
[2] = Molar enthalpy of transition or fusion; settings: Crystal; DSC

Normal melting temperature [1]: 57.01 ± 0.39 °C
Molar enthalpy of transition or fusion [2]: 3.91 ± 0.108 kcal/mol
SMILES: CCCCn1cc[n+](C)c1.Cc1ccc(S(=O)(=O)[O-])cc1 [1-butyl-3-methylimidazolium tosylate]
